From patent US9526248B2 (Rohm and Haas Company, priority 2012, dated 2016)
Like-named read-outs stand apart in the source and are kept apart here.

How the values were obtained:
Chlorella sp. ATCC 7516 = experiment: Algal efficacy test of dry paint films (modified ASTM 5589, 6-well plates); format: cell-based; conditions: for inhibition at 5000 ppm: 504 h; for Total conc: total biocide concentration in paint at which the % inhibition is reported, pass level ≥75% inhibition, single actives: maximum concentration tested, no pass
Experimental: (§1) These paints were then diluted with an antimicrobial free acrylic/silicone based paint and mixed to prepare targeted concentrations of antimicrobial compounds for the testing. The total biocides concentrations tested were 125, 250, 500, 1000, 2000 and 5000 ppm. After biocides addition or dilution, the paints were mixed 90 seconds with the horse power shaker (AXEL 75M3372/Agitateur 50-10MI) until uniformity was achieved. Paints containing different antimicrobial compounds at the same levels were mixed together in order to obtain the desired ratio of antimicrobial compounds. After one day, the paints were applied to Schleicher & Schuell filter paper at 280 μm wet film thickness and dried for 3 days at room temperature avoiding direct exposure to sunlight. Square discs (1.6 cm×1.6 cm) were cut out from each panel and were used as the substrate for algal efficacy tests. This sample size allowed for an agar border when the sample disc was placed into the well of the test plate.
(§2) Algal efficacy was tested according to modified ASTM 5589 which is a standard accelerated test method for determining resistance of various coatings (including paints) to algal defacement. To accommodate for high-throughput screening, this method was scaled down from petri dishes to 6-well plates. Bold Modified Basal Freshwater Nutrient Solution was used as growth medium. A single coated filter paper coupon was placed with a pair of sterile forceps at the center of the agar plug (on top) with the painted surface facing upwards. Algal inoculums were prepared by mixing equal concentrations (1×10^6 cfu/ml) and equal volumes of exponentially growing algae cultures.
(§3) Each well that contains a tested coupon was inoculated with 1750 μl of algal suspensions (1×10^6 cfu/ml) making sure that the whole surface (paint film as well as the agar surrounding it) was evenly covered. The plates were incubated at room temp (21° C.-25° C.) with cyclic exposure to light and dark phases, for a period of three weeks.
(§4) At the end of the three week incubation period, the samples were scored for percent inhibition regarding visible algal growth compared to the blank sample (0% inhibition).
(§5) The SI is calculated based on F. C. Kull et.
(§6) SI value of <1 in the formula indicates a synergism of the blended biocides exists.
(§7) The minimal targeted inhibition was set at 75%, meaning a coupon with at least 75% algal growth inhibition was considered as a pass.

[1] = system: Stichococcus bacillaris SAG 379-1a / CCAP 379/1a; experiment: as above; format: cell-based; conditions: for inhibition at 5000 ppm: Stichococcus bacillaris, 504 h; for Total conc: total biocide concentration in paint at which the % inhibition is reported, pass level ≥75% inhibition, single actives: maximum concentration tested, no pass
Experimental: as §1, §2, §3, §4, §5, §6, §7

SMILES | inhibition at 5000 ppm (Chlorella sp. ATCC 7516) [%] | Total conc (Chlorella sp. ATCC 7516; 3 weeks) [ppm] | inhibition at 5000 ppm [1] [%] | Total conc ([1]; Stichococcus, 3 weeks) [ppm] | inhibition at 5000 ppm (Chlorella sp. ATCC 7516; total conc 5000 ppm in paint, visible algal growth vs blank, 3 weeks, read-out: % inhibition) [%] | inhibition at 5000 ppm ([1]; Stichococcus, total conc 5000 ppm in paint, visible algal growth vs blank, 3 weeks, read-out: % inhibition) [%]
O=c1[nH]c2c(c(=O)n1C1CCCCC1)CCC2 [Lenacil, 3-cyclohexyl-1,5,6,7-tetrahydrocyclopentapyrimidine-2,4(3H)-dione] | 30 | 5000 | 70 | 5000 | – | –
CCNc1nc(NC(C)(C)C)nc(SC)n1 [Terbutryn, N^2-tert-butyl-N^4-ethyl-6-methylthio-1,3,5-triazine-2,4-diamine] | – | 5000 | – | 5000 | 65 | 35
